Measured values: patent US8829007B2 (priority 2009, dated 2014)
Like-named read-outs stand apart in the source and are kept apart here.

Legend:
[1] = test system: influenza A virus (A/PR/8/34); assay: microbe, parasite or virus in culture; format: cell-based; settings: read-out: IC50 (mean all)
[2] = test system: A/PR/8/34 influenza virus; assay: microbe, parasite or virus in culture; format: cell-based; settings: read-out: EC50 (mean all)
[3] = Influenza A virus, PR/8, MDCK, MDCK cells infected with A/PR/8/34, cell protection (CPE)
[4] = Influenza A virus, PR/8, MDCK, MDCK cells infected with A/PR/8/34, bDNA viral RNA

Compound	IC50 [1, 3]	EC50 [2, 4]	also measured
O=C(OCCF)N1CCC[C@H](CNc2nc(-c3c[nH]c4ncc(Cl)cc34)ncc2F)C1 [Compound 126, (R)-2-fluoroethyl 3-((2-(5-chloro-1H-pyrrolo[2,3-b]pyridin-3-yl)-5-fluoropyrimidin-4-ylamino)methyl)piperidine-1-carboxylate]	< 5 µM	< 5 µM	–
CC#CCOC(=O)N1CCC[C@H](CNc2nc(-c3c[nH]c4ncc(Cl)cc34)ncc2F)C1 [Compound 127, (R)-but-2-ynyl 3-((2-(5-chloro-1H-pyrrolo[2,3-b]pyridin-3-yl)-5-fluoropyrimidin-4-ylamino)methyl)piperidine-1-carboxylate]	–	–	IC50 ([1]; Influenza A virus, PR/8, MDCK): < 5 µM; EC50 ([2]; Influenza A virus, PR/8, MDCK): < 5 µM
CC(C)(C)NC(=O)N1CCC[C@H](CNc2nc(-c3c[nH]c4ncc(Cl)cc34)ncc2F)C1 [Compound 128, (R)—N-tert-butyl-3-((2-(5-chloro-1H-pyrrolo[2,3-b]pyridin-3-yl)-5-fluoropyrimidin-4-ylamino)methyl)piperidine-1-carboxamide]	< 5 µM	< 5 µM	–
O=C(Nc1cccs1)N1CCC[C@H](CNc2nc(-c3c[nH]c4ncc(Cl)cc34)ncc2F)C1 [Compound 129, (R)-3-((2-(5-chloro-1H-pyrrolo[2,3-b]pyridin-3-yl)-5-fluoropyrimidin-4-ylamino)methyl)-N-(thiophen-2-yl)piperidine-1-carboxamide]	< 5 µM	< 5 µM	–
COC(=O)NC(=O)N1CCC[C@H](CNc2nc(-c3c[nH]c4ncc(Cl)cc34)ncc2F)C1 [Compound 131, (R)-methyl 3-((2-(5-chloro-1H-pyrrolo[2,3-b]pyridin-3-yl)-5-fluoropyrimidin-4-ylamino)methyl)piperidine-1-carbonylcarbamate]	< 5 µM	< 5 µM	–
O=C(c1cc(F)cc2c1OCOC2)N1CCC[C@H](CNc2nc(-c3c[nH]c4ncc(Cl)cc34)ncc2F)C1 [Compound 142, (R)-(3-((2-(5-chloro-1H-pyrrolo[2,3-b]pyridin-3-yl)-5-fluoropyrimidin-4-ylamino)methyl)piperidin-1-yl)(6-fluoro-4H-benzo[d][1,3]dioxin-8-yl)methanone]	< 5 µM	< 5 µM	–
Cc1ccccc1C(=O)N1CCC[C@H](CNc2nc(-c3c[nH]c4ncc(Cl)cc34)ncc2F)C1 [Compound 143, (R)-(3-((2-(5-chloro-1H-pyrrolo[2,3-b]pyridin-3-yl)-5-fluoropyrimidin-4-ylamino)methyl)piperidin-1-yl)(o-tolyl)methanone]	< 5 µM	< 5 µM	–
O=C(c1ccc2c(c1)OCC2)N1CCC[C@H](CNc2nc(-c3c[nH]c4ncc(Cl)cc34)ncc2F)C1 [Compound 145, (R)-(3-((2-(5-chloro-1H-pyrrolo[2,3-b]pyridin-3-yl)-5-fluoropyrimidin-4-ylamino)methyl)piperidin-1-yl)(2,3-dihydrobenzofuran-6-yl)methanone]	< 5 µM	< 5 µM	–
O=C(c1ccccc1C(F)(F)F)N1CCC[C@H](CNc2nc(-c3c[nH]c4ncc(Cl)cc34)ncc2F)C1 [Compound 146, (R)-(3-((2-(5-chloro-1H-pyrrolo[2,3-b]pyridin-3-yl)-5-fluoropyrimidin-4-ylamino)methyl)piperidin-1-yl)(2-(trifluoromethyl)phenyl)methanone]	< 5 µM	< 5 µM	–
O=C(c1ccc(Cl)cc1Cl)N1CCC[C@H](CNc2nc(-c3c[nH]c4ncc(Cl)cc34)ncc2F)C1 [Compound 147, (R)-(3-((2-(5-chloro-1H-pyrrolo[2,3-b]pyridin-3-yl)-5-fluoropyrimidin-4-ylamino)methyl)piperidin-1-yl)(2,4-dichlorophenyl)methanone]	< 5 µM	< 5 µM	–
COc1c(C)cccc1C(=O)N1CCC[C@H](CNc2nc(-c3c[nH]c4ncc(Cl)cc34)ncc2F)C1 [Compound 148, (R)-(3-((2-(5-chloro-1H-pyrrolo[2,3-b]pyridin-3-yl)-5-fluoropyrimidin-4-ylamino)methyl)piperidin-1-yl)(2-methoxy-3-methylphenyl)methanone]	< 5 µM	< 5 µM	–
O=C(c1cc(F)ccc1F)N1CCC[C@H](CNc2nc(-c3c[nH]c4ncc(Cl)cc34)ncc2F)C1 [Compound 151]	< 5 µM	< 5 µM	–
O=C(c1ccc(F)cc1F)N1CCC[C@H](CNc2nc(-c3c[nH]c4ncc(Cl)cc34)ncc2F)C1 [Compound 152, (R)-(3-((2-(5-chloro-1H-pyrrolo[2,3-b]pyridin-3-yl)-5-fluoropyrimidin-4-ylamino)methyl)piperidin-1-yl)(2,4-difluorophenyl)methanone]	< 5 µM	< 5 µM	–
COc1ccc(C(=O)N2CCC[C@H](CNc3nc(-c4c[nH]c5ncc(Cl)cc45)ncc3F)C2)c(OC)c1 [Compound 154, (R)-(3-((2-(5-chloro-1H-pyrrolo[2,3-b]pyridin-3-yl)-5-fluoropyrimidin-4-ylamino)methyl)piperidin-1-yl)(2,4-dimethoxyphenyl)methanone]	5 to 20 µM	< 5 µM	–
Cc1cccc(C(=O)N2CCC[C@H](CNc3nc(-c4c[nH]c5ncc(Cl)cc45)ncc3F)C2)c1C [Compound 157, (R)-(3-((2-(5-chloro-1H-pyrrolo[2,3-b]pyridin-3-yl)-5-fluoropyrimidin-4-ylamino)methyl)piperidin-1-yl)(2,3-dimethylphenyl)methanone]	< 5 µM	< 5 µM	–
COCCOC(=O)N1CCCC[C@H]1CNc1nc(-c2c[nH]c3ncc(Cl)cc23)ncc1F [Compound 161, (S)-2-methoxyethyl 2-((2-(5-chloro-1H-pyrrolo[2,3-b]pyridin-3-yl)-5-fluoropyrimidin-4-ylamino)methyl)piperidine-1-carboxylate]	> 20 µM	< 5 µM	–
O=C(OCCCl)N1CCCC[C@H]1CNc1nc(-c2c[nH]c3ncc(Cl)cc23)ncc1F [Compound 163, (S)-2-chloroethyl 2-((2-(5-chloro-1H-pyrrolo[2,3-b]pyridin-3-yl)-5-fluoropyrimidin-4-ylamino)methyl)piperidine-1-carboxylate]	5 to 20 µM	< 5 µM	–
C#CCOC(=O)N1CCCC[C@H]1CNc1nc(-c2c[nH]c3ncc(Cl)cc23)ncc1F [Compound 164, (S)-prop-2-ynyl 2-((2-(5-chloro-1H-pyrrolo[2,3-b]pyridin-3-yl)-5-fluoropyrimidin-4-ylamino)methyl)piperidine-1-carboxylate]	> 20 µM	< 5 µM	–
COC(=O)N1CCCC[C@H]1CNc1nc(-c2c[nH]c3ncc(Cl)cc23)ncc1F [Compound 166, (S)-methyl 2-((2-(5-chloro-1H-pyrrolo[2,3-b]pyridin-3-yl)-5-fluoropyrimidin-4-ylamino)methyl)piperidine-1-carboxylate]	5 to 20 µM	< 5 µM	–
CCOC(=O)N1CCCC[C@H]1CNc1nc(-c2c[nH]c3ncc(Cl)cc23)ncc1F [Compound 171, (S)-ethyl 2-((2-(5-chloro-1H-pyrrolo[2,3-b]pyridin-3-yl)-5-fluoropyrimidin-4-ylamino)methyl)piperidine-1-carboxylate]	> 20 µM	5 to 10 µM	–
CC(=O)N1CCCC[C@@H]1CNc1nc(-c2c[nH]c3ncc(Cl)cc23)ncc1F [Compound 179, (R)-1-(2-((2-(5-chloro-1H-pyrrolo[2,3-b]pyridin-3-yl)-5-fluoropyrimidin-4-ylamino)methyl)piperidin-1-yl)ethanone]	< 5 µM	< 5 µM	–
O=C(OCCF)N1CCCC[C@@H]1CNc1nc(-c2c[nH]c3ncc(Cl)cc23)ncc1F [Compound 180, (R)-2-fluoroethyl 2-((2-(5-chloro-1H-pyrrolo[2,3-b]pyridin-3-yl)-5-fluoropyrimidin-4-ylamino)methyl)piperidine-1-carboxylate]	< 5 µM	< 5 µM	–
O=C(c1nccs1)N1CCCC(CNc2nc(-c3c[nH]c4ncc(Cl)cc34)ncc2F)C1 (stereo not shown) [Compound 186]	< 5 µM	< 5 µM	–
CCCNC(=O)N1CCCC(Nc2nc(-c3c[nH]c4ncc(Cl)cc34)ncc2F)C1 (stereo not shown) [Compound 196]	–	–	IC50 [1]: < 5 µM; EC50 [2]: < 5 µM
CCC(=O)N1CCCC[C@@H]1CNc1nc(-c2c[nH]c3ncc(Cl)cc23)ncc1F [Compound 208, (R)-1-(2-((2-(5-chloro-1H-pyrrolo[2,3-b]pyridin-3-yl)-5-fluoropyrimidin-4-ylamino)methyl)piperidin-1-yl)propan-1-one]	< 5 µM	< 5 µM	–
O=C(c1ccc(F)cc1)N1CCCC[C@@H]1CNc1nc(-c2c[nH]c3ncc(Cl)cc23)ncc1F [Compound 209, (R)-(2-((2-(5-chloro-1H-pyrrolo[2,3-b]pyridin-3-yl)-5-fluoropyrimidin-4-ylamino)methyl)piperidin-1-yl)(4-fluorophenyl)methanone]	< 5 µM	< 5 µM	–
O=C(c1cccc(C(F)(F)F)c1)N1CCCC[C@@H]1CNc1nc(-c2c[nH]c3ncc(Cl)cc23)ncc1F [Compound 210, (R)-(2-((2-(5-chloro-1H-pyrrolo[2,3-b]pyridin-3-yl)-5-fluoropyrimidin-4-ylamino)methyl)piperidin-1-yl)(3-(trifluoromethyl)phenyl)methanone]	> 20 µM	5 to 10 µM	–
C=CCCC(=O)N1CCCC[C@@H]1CNc1nc(-c2c[nH]c3ncc(Cl)cc23)ncc1F [Compound 279, (R)-1-(2-((2-(5-chloro-1H-pyrrolo[2,3-b]pyridin-3-yl)-5-fluoropyrimidin-4-ylamino)methyl)piperidin-1-yl)pent-4-en-1-one]	< 5 µM	< 5 µM	–
O=C(CC(F)(F)F)N1CCCC[C@@H]1CNc1nc(-c2c[nH]c3ncc(Cl)cc23)ncc1F [Compound 280, (R)-1-(2-((2-(5-chloro-1H-pyrrolo[2,3-b]pyridin-3-yl)-5-fluoropyrimidin-4-ylamino)methyl)piperidin-1-yl)-3,3,3-trifluoropropan-1-one]	< 5 µM	< 5 µM	–
